One series can be described thus: CD thermal melts. Type of series: physicochemical. The note with it: CD thermal melt, Trp-Trp exciton coupling band at 228 nm, aqueous solution.
The nature of series [1]: HeLa cell lysate stability assay. The settings on record: for primary degradation products in HeLa cell lysate: after 24 hours, mass spectrometry; for remaining at 4 h / half-life: human.
The nature of a further series: in vitro. The note with it: human, cells or culture medium.

SMILES strings stand for the structures. Numbered stars: 1 amine (or outer) side, 2 acyl side, 3 side chain; on linkers, the order of the positions; unused ones are H or OH. Bridge positions count the residues as written; N and C are the ends. Square brackets hold non-standard residues; d marks the D form. Peptide text beside a SMILES is read from it. * marks the point of attachment. X1 = O=C([C@@H]1C[C@@H](SCc2cccc(C[*:3])c2)CN1[*:1])[*:2]; X2 = C=CCS[C@@H]1C[C@@H](C(=O)[*:2])N([*:1])C1; Ac3c = NC1(C(=O)O)CC1; Allyl = C=CC*

By share remaining is commonly meant what is left of the initial amount, in per cent. Higher therefore signals less turnover. On to `C=CCSC[C@H](NC(=O)[C@@H](Cc1ccc(O)cc1)NC(=O)[C@H](Cc1c[nH]c2ccccc12)NC(=O)[C@@H](NC(=O)[C@@H](N)CCCCN)[C@@H](C)O)C(=O)N[C@H](C(=O)N1CCC[C@@H]1C(=O)NC1(C(=O)NCC(=O)N2C[C@H](SCC=C)C[C@H]2C(=O)NCC(=O)N[C@@H](Cc2c[nH]c3ccccc23)C(=O)N[C@H](C(=O)N[C@@H](CCC(=O)O)C(=O)O)[C@@H](C)O)CC1)[C@@H](C)O` [4MP-a] (H-KTW[dY]C(Allyl)T[dP][Ac3c]G[X2]GWTE-OH; N-terminus and C-terminus assumed), for which the “T50 (temperature at which the peptide retains 50% structure)” value in the series “CD thermal melts” came out at 50.8 °C. In series [1], the “primary degradation products in HeLa cell lysate” value was “intact except for the two N-terminal amino acids” and the share remaining at 4 h is roughly 22%.
For orientation: half-life means the time in which the quantity being followed falls by half. In the case of `C=CCSC[C@H](NC(=O)[C@@H](Cc1ccc(O)cc1)NC(=O)[C@H](Cc1c[nH]c2ccccc12)NC(=O)[C@@H](NC(C)=O)[C@@H](C)O)C(=O)N[C@H](C(=O)N1CCC[C@@H]1C(=O)NC1(C(=O)NCC(=O)N2C[C@H](SCC=C)C[C@H]2C(=O)NCC(=O)N[C@@H](Cc2c[nH]c3ccccc23)C(=O)N[C@H](C(N)=O)[C@@H](C)O)CC1)[C@@H](C)O` [Δ4MP-a] (Ac-TW[dY]C(Allyl)T[dP][Ac3c]G[X2]GWT-NH2; N-terminus and C-terminus assumed), in series [1], the half-life was 30 h.
On to `C[C@@H](O)[C@H](NC(=O)[C@H](Cc1c[nH]c2ccccc12)NC(=O)CNC(=O)[C@@H]1C[C@@H]2CN1C(=O)CNC(=O)C1(CC1)NC(=O)[C@H]1CCCN1C(=O)[C@H]([C@@H](C)O)NC(=O)[C@@H](NC(=O)[C@@H](Cc1ccc(O)cc1)NC(=O)[C@H](Cc1c[nH]c3ccccc13)NC(=O)[C@@H](NC(=O)[C@@H](N)CCCCN)[C@@H](C)O)CSCc1cccc(c1)CS2)C(=O)N[C@@H](CCC(=O)O)C(=O)O` [4MP-m] (H-KTW[dY]CT[dP][Ac3c]G[X1]GWTE-OH; thioether 5-10; N-terminus and C-terminus assumed), for which, in the series “CD thermal melts”, the “T50 (temperature at which the peptide retains 50% structure)” value was 58.5 °C. In addition, in series [1], the “primary degradation products in HeLa cell lysate” value is “intact except for the two N-terminal amino acids” and the amount remaining at 4 h is roughly 7%.
For `C[C@H](NC(=O)[C@@H]1CCCN1C(=O)[C@H](CC(N)=O)NC(=O)[C@H](Cc1c[nH]c2ccccc12)NC(=O)[C@@H](NC(=O)[C@@H](N)CCCCN)[C@@H](C)O)C(=O)N[C@H](C(=O)NCC(=O)N[C@@H](CCCCN)C(=O)N[C@@H](Cc1c[nH]c2ccccc12)C(=O)N[C@H](C(=O)N[C@@H](CCC(=O)O)C(=O)O)[C@@H](C)O)[C@@H](C)O` [HP7, reference compound] (H-KTWNPATGKWTE-OH; N-terminus and C-terminus assumed), in the series “CD thermal melts”, the “T50 (temperature at which the peptide retains 50% structure)” value came to 58.7 °C. The compound also came in with an amount remaining at 2 h in the series “in vitro” of roughly 0%.
`CC(=O)N[C@H](C(=O)N[C@@H](Cc1c[nH]c2ccccc12)C(=O)N[C@H](Cc1ccc(O)cc1)C(=O)N[C@H]1CSCc2cccc(c2)CS[C@@H]2C[C@@H](C(=O)NCC(=O)N[C@@H](Cc3c[nH]c4ccccc34)C(=O)N[C@H](C(N)=O)[C@@H](C)O)N(C2)C(=O)CNC(=O)C2(CC2)NC(=O)[C@H]2CCCN2C(=O)[C@H]([C@@H](C)O)NC1=O)[C@@H](C)O` [Δ4MP-m] (Ac-TW[dY]CT[dP][Ac3c]G[X1]GWT-NH2; thioether 4-9): the half-life in series [1] is 21 h.
Turning to `CC(=O)N[C@H](C(=O)N[C@@H](Cc1c[nH]c2ccccc12)C(=O)N[C@@H](CC(N)=O)C(=O)N1CCC[C@H]1C(=O)N[C@@H](C)C(=O)N[C@H](C(=O)NCC(=O)N[C@@H](CCCCN)C(=O)N[C@@H](Cc1c[nH]c2ccccc12)C(=O)N[C@H](C(N)=O)[C@@H](C)O)[C@@H](C)O)[C@@H](C)O` [ΔHP7] (Ac-TWNPATGKWT-NH2; N-terminus and C-terminus assumed), in the series “in vitro”, the fraction remaining at 2 h was roughly 19%.

The record behind these values is PMC9250296 (Journal of the American Chemical Society, 2021).
